From ChEMBL document CHEMBL1136837, “Unified QSAR approach to antimicrobials. 4. Multi-target QSAR modeling and comparative multi-distance study of the giant components of antiviral drug-drug complex networks” (Bioorg Med Chem, 2009)

Columns and labels:
Human betaherpesvirus 5 = experiment: Antiviral activity against Human cytomegalovirus; assay type: functional, organism-based
Vaccinia virus = experiment: Antiviral activity against Vaccinia virus; assay type: functional, organism-based, Orthopoxvirus vaccinia; conditions: Orthopoxvirus vaccinia
Human alphaherpesvirus 3 = experiment: Antiviral activity against Varicella zoster virus; assay type: functional, organism-based
[1] = tested on: Human immunodeficiency virus 1; experiment: Antiviral activity against HIV1; assay type: functional, organism-based
Human alphaherpesvirus 1 = experiment: Antiviral activity against Herpes simplex virus 1; assay type: functional, organism-based; conditions: Human alphaherpesvirus 1
Human alphaherpesvirus 2 = experiment: Antiviral activity against Herpes simplex virus 2; assay type: functional, organism-based; conditions: Human alphaherpesvirus 2
[2] = tested on: unidentified influenza virus; experiment: Antiviral activity against influenza virus; assay type: functional, organism-based

SMILES | IC50 (Human betaherpesvirus 5; Human betaherpesvirus 5) [nM] | IC50 (Human alphaherpesvirus 1) [nM] | IC50 (Human alphaherpesvirus 2) [nM] | further results
CC(C)Oc1ccc(NC(=O)N2CCC[C@H]2C(=O)N2CC[C@H]3[C@H]2[C@H](C)C(=O)N3C(=O)C2CC2)cc1 | 180 | – | – | –
C[C@@H]1C(=O)N(C(=O)C2CC2)[C@H]2CCN(C(=O)[C@@H]3CCCN3C(=O)Nc3cccc(Cl)c3)[C@H]12 | 650 | – | – | –
C[C@@H]1C(=O)N(C(=O)C2CC2)[C@H]2CCN(C(=O)[C@@H]3CCCN3C(=O)c3ccc(Cl)cc3)[C@H]12 | 1400 | – | – | –
C[C@@H]1C(=O)N(C(=O)C2CC2)[C@H]2CCN(C(=O)[C@@H]3CCCN3C(=O)Nc3cccc4ccccc34)[C@H]12 | 650 | – | – | –
CCOC(=O)Cc1c(N)nc(N)n(CCOCP(=O)(O)O)c1=O | 0.15 | 1.2 | 1.2 | IC50 (Vaccinia virus): 1.2 nM; IC50 (Human alphaherpesvirus 3): 0.15 nM; IC50 [1]: 0.0003 µM
O=c1[nH]c(=O)n([C@H]2C[C@H](O)[C@]3(CO)C[C@H]23)cc1/C=C/Br | – | 6410 | 291000 | –
Nc1nc(N)c(Br)c(OCCOCP(=O)(O)O)n1 | 0.15 | – | 0.7 | IC50 (Vaccinia virus): 0.7 nM; IC50 (Human alphaherpesvirus 3): 0.15 nM
Nc1nc(N)c(Cl)c(OCCOCP(=O)(O)O)n1 | – | – | 1.2 | IC50 (Vaccinia virus): 1.2 nM
CC(C)/C=C1\N=C(CC(C)C)C(=O)N(O)C1=O | – | – | – | IC50 [2]: 5.5 µM
O=C(O)/C=C/C(=O)c1ccccc1 | – | – | – | IC50 [2]: 500 µM
O=C1Cc2ccccc2CC(=O)N1O | – | – | – | IC50 [2]: 1000 µM
O=C(Nc1cccc(C(=O)O)c1)Nc1ccc2c(C(=O)c3ccccc3)c(O)n(O)c2c1 | – | – | – | IC50 [2]: 3 µM
CCC(=O)c1c(O)n(O)c2cc(NC(=O)Nc3ccccc3Cl)ccc12 | – | – | – | IC50 [2]: 50 µM
Cc1nn([C@H]2C[C@H](O)[C@@H](CO)S2)c(=O)nc1O | 200000 | 18000 | 3300 | IC50 (Vaccinia virus): 2200 nM; IC50 (Human alphaherpesvirus 3): 5000 nM
CCCc1nn([C@H]2C[C@H](O)[C@@H](CO)S2)c(=O)[nH]c1=O | 40000 | – | – | –
CCc1nn([C@H]2C[C@H](O)[C@@H](CO)S2)c(=O)nc1O | 40000 | 120000 | 200000 | IC50 (Vaccinia virus): 200000 nM; IC50 (Human alphaherpesvirus 3): 40000 nM
CCC(=O)c1c(O)n(O)c2cc(NC(=O)Nc3ccc(Cl)cc3)ccc12 | – | – | – | IC50 [2]: 38 µM
Nc1cc(OCCOCP(=O)(O)O)nc(N)n1 | – | 0.0246 | 0.0909 | –
Nc1nc(NC2CC2)cc(=O)n1CCOCP(=O)(O)O | – | 0.0526 | 0.0526 | IC50 (Human alphaherpesvirus 3): 0.164 nM; IC50 [1]: 0.000329 µM

SMILES | IC50 (Human betaherpesvirus 5; Human betaherpesvirus 5) [nM] | IC50 (Human alphaherpesvirus 1) [nM] | IC50 (Human alphaherpesvirus 2) [nM] | further results
CC(C)Oc1cccc(S(=O)(=O)N2CCC[C@H]2C(=O)N2CC[C@H]3[C@H]2[C@H](C)C(=O)N3C(=O)C2CC2)c1 | 65000 | – | – | –
Cc1c(C(=O)N2CCC[C@H]2C(=O)N2CC[C@H]3[C@H]2[C@H](C)C(=O)N3C(=O)C2CC2)sc2ccc(Cl)cc12 | 190 | – | – | –
C[C@@H]1C(=O)N(C(=O)C2CC2)[C@H]2CCN(C(=O)[C@@H]3CCCN3C(=O)Nc3ccc(Cl)cc3)[C@H]12 | 260 | – | – | –
C[C@@H]1C(=O)N(C(=O)C2CC2)[C@H]2CCN(C(=O)[C@@H]3CCCN3S(=O)(=O)c3ccc4ccccc4c3)[C@H]12 | 190 | – | – | –
Cc1c(N)nc(N)nc1OCCOCP(=O)(O)O | 0.72 | 1.2 | 1.2 | IC50 (Vaccinia virus): 0.86 nM; IC50 (Human alphaherpesvirus 3): 0.018 nM
O=c1[nH]c(=O)n([C@H]2C[C@H](O)[C@]3(CO)C[C@H]23)cc1I | – | 275000 | 9060 | –
C[C@@H]1C(=O)N(C(=O)C2CC2)[C@H]2CCN(C(=O)[C@@H]3CCCN3C(=O)Nc3ccccc3)[C@H]12 | 1400 | – | – | –
Nc1cc(OC[C@H](CO)OCP(=O)(O)O)nc(N)n1 | – | 0.0048 | 0.017 | IC50 (Vaccinia virus): 0.0065 nM
CC(=O)OC[C@H]1S[C@@H](n2nc(C)c(=S)[nH]c2=O)C[C@@H]1OC(C)=O | – | 8000 | 8000 | –
O=c1[nH]c(=O)n([C@H]2C[C@H](O)[C@]3(CO)C[C@H]23)cc1Br | – | 1230 | 2200 | –
C[C@@H]1C(=O)N(C(=O)C2CC2)[C@H]2CCN(C(=O)[C@@H]3CCCN3C(=O)c3cccc4ccccc34)[C@H]12 | 890 | – | – | –
Cc1cn(/C=C2/CC2(CO)CO)c(=O)[nH]c1=O | 420000 | 420000 | 420000 | IC50 (Human alphaherpesvirus 3): 420000 nM
CC(=O)c1c(O)n(O)c2cc(NC(=O)Nc3cccc(C(=O)O)c3)ccc12 | – | – | – | IC50 [2]: 14 µM
CCC(=O)c1c(O)n(O)c2cc(NC(=O)c3ccc(Cl)cc3Cl)ccc12 | – | – | – | IC50 [2]: 45 µM
CCCCCCCCCCCCCCCCCCOCCCOP(=O)(O)CO[C@H](CO)Cn1ccc(N)nc1=O | 0.03 | – | – | –
CC(NP1(=O)CO[C@@H](Cn2ccc(N)nc2=O)CO1)C(=O)OCCc1ccccc1 (some centres not stated) | – | – | – | IC50 (Vaccinia virus): 7100 nM
NC(=O)/C(O)=C/C(=O)C1CCCCC1 | – | – | – | IC50 [2]: 500 µM
O[C@@H]1[C@H](O)[C@@H](n2c(Cl)nc3cc(Cl)c(Cl)cc32)O[C@H]1C(F)(F)F | 450 | – | – | –
COc1c(C#N)c2cc(Cl)c(Cl)cc2n1[C@H]1C[C@H](O)[C@@H](CO)O1 | 68000 | – | – | IC50 [1]: 90 µM

SMILES | IC50 (Human betaherpesvirus 5; Human betaherpesvirus 5) [nM] | IC50 (Human alphaherpesvirus 1) [nM] | IC50 (Human alphaherpesvirus 2) [nM] | further results
N#Cc1c(Cl)n([C@@H]2O[C@H](CN=[N+]=[N-])[C@@H](O)[C@H]2O)c2cc(Cl)c(Cl)cc12 | 3000 | – | – | IC50 [1]: 15 µM
COc1c(C=O)c2cc(Cl)c(Cl)cc2n1[C@H]1C[C@H](O)[C@@H](CO)O1 | 100000 | – | – | IC50 [1]: 100 µM
CCCOc1ccc(NC(=O)N2CCC[C@H]2C(=O)N2CC[C@H]3[C@H]2[C@H](C)C(=O)N3C(=O)C2CC2)cc1 | 210 | – | – | –
O=C(O)/C(O)=C/C(=O)c1ccc(C2CCCCC2)cc1 | – | – | – | IC50 [2]: 5 µM
CC(=O)Nc1nc(C)c(S(=O)(=O)Nc2ccc(C(=O)Nc3ccc4c(c3)N(O)C(=O)/C4=C(\O)c3ccccc3)cc2)s1 | – | – | – | IC50 [2]: 32 µM
CCCCCCCCCCCCCCCCCCOCCOP1(=O)CO[C@@H](Cn2ccc(N)nc2=O)CO1 (some centres not stated) | – | – | – | IC50 (Vaccinia virus): 580 nM
OC[C@H]1O[C@@H](n2c(Cl)nc3cc(Cl)c(Cl)cc32)[C@H](O)[C@@H]1O | 3200 | – | – | –
O=C(/C=C/c1ccccc1Cl)Nc1ccc(C(=O)Nc2ccc3c(c2)N(O)C(=O)/C3=C(\O)c2ccccc2)cc1 | – | – | – | IC50 [2]: 9.5 µM
CC(=O)c1c(Br)n([C@H]2C[C@H](O)[C@@H](CO)O2)c2cc(Cl)c(Cl)cc12 | 340 | – | – | –
CN(C)c1cc(O)nc(N)n1 | – | 2.6 | 2.6 | IC50 (Human alphaherpesvirus 3): 0.325 nM
CC(C)OP(=O)(COCCOc1cc(N)ncn1)OC(C)C | – | 1.2 | 1.2 | IC50 (Human alphaherpesvirus 3): 0.15 nM; IC50 [1]: 6.01 µM
C[C@@H]1C(=O)N(C(=O)C2CC2)[C@H]2CCN(C(=O)[C@@H]3CCCN3S(=O)(=O)c3ccc(Cl)cc3)[C@H]12 (stereo in doubt; form 2) | – | – | – | IC50 (Human betaherpesvirus 5): 840 nM
Nc1ccn(C[C@@H](CO)OCP(=O)(O)O)c(=O)n1 (stereo in doubt; form 2) [CIDOFOVIR] | – | – | – | IC50 (Vaccinia virus): 32000 nM
Cc1cn([C@H]2C[C@H](O)[C@]3(CO)C[C@H]23)c(=O)[nH]c1=O [(NORTH)-METHANOCARBATHYMIDINE] | – | 120 | – | –
Nc1nc2c(ncn2COCCO)c(=O)[nH]1 [ACYCLOVIR] | – | – | – | IC50 (Vaccinia virus): 384 nM
Nc1ncnc2c1ncn2CCOCP(=O)(O)O [ADEFOVIR] | – | 0.024 | – | –
O=c1[nH]c(=O)n([C@H]2C[C@H](O)[C@@H](CO)O2)cc1/C=C/Br [BRIVUDINE] | 150000 | 48000 | 76 | IC50 (Vaccinia virus): 400000 nM; IC50 (Human alphaherpesvirus 3): 29000 nM
CC(C)OC(=O)OCOP(=O)(CO[C@H](C)Cn1cnc2c(N)ncnc21)OCOC(=O)OC(C)C [TENOFOVIR DISOPROXIL] | – | – | – | IC50 (Vaccinia virus): 157000 nM
